From paper PMC4216216 (Journal of Medicinal Chemistry, 2014)

How the values were obtained:
KDM4A [1] = target: T1, KDM4A (Homo sapiens, UniProt O75164); assay: Demethylation of calf thymus H3 by KDM4A, western blot; conditions: 10 μM enzyme, 100 μM inhibitor, 5 μM H3, 37 °C, 30 min
T1 sequence (O75164 1-347): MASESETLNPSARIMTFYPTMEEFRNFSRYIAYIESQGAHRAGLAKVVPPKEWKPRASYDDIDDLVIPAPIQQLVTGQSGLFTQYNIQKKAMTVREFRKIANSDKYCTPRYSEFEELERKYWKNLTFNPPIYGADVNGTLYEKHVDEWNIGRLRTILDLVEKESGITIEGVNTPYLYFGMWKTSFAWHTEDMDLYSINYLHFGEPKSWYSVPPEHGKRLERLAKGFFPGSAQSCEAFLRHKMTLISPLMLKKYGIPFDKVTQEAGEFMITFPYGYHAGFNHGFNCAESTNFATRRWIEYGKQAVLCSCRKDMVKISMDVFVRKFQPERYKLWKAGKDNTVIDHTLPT

RWPE1 = RWPE1 normal prostate cell growth; conditions: 20 μM treatment
H3K9me3 in LNCaP cells = assay: Histone H3 methylation level in LNCaP cells, western blot; assay type: cell-based
LNCaP cells [2] = conditions: 5–20 μM, over 6 days
KDM4A [3] = target: T1, KDM4A
PNT2 cells = assay: PNT2 normal prostate cell growth; conditions: 5–20 μM, over 6 days
LNCaP cells [4] = assay: Microarray gene expression in LNCaP cells; assay type: cell-based; conditions: 50 μM, 3 days
KDM4B [5] = target: T2, KDM4B (Homo sapiens, UniProt O94953)
T2 sequence (O94953 1-348): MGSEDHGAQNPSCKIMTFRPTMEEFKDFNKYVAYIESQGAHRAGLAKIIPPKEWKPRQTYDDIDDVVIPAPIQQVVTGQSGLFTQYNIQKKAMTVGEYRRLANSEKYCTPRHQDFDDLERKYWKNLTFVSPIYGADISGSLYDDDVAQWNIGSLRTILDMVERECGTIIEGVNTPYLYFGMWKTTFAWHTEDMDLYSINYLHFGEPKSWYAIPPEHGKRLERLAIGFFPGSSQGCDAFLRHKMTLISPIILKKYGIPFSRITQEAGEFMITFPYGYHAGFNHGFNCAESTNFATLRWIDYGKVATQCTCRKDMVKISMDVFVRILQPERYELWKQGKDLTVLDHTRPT

KDM4B [6] = target: T2, KDM4B; conditions: 10 μM enzyme, 100 μM inhibitor, 5 μM H3, 37 °C, 30 min
cultured cells = conditions: as a prodrug; cited from earlier work
HeLa cells = conditions: read-out: cytotoxic IC50 in HeLa cells; cited from earlier work

demethylation of histone H3K9me3 and H3K36me3 by KDM4A (KDM4A [1])	inhibitory mode against H3_3–17K9me3, KDM4A (KDM4A [3])	activity (KDM4B [5])	demethylation of histone H3K9me3 and H3K36me3 by KDM4B (KDM4B [6])	activity (KDM4A [3])	Compound	growth of RWPE1 cells (RWPE1)	demethylating activity toward H3K9me3 in LNCaP cells (H3K9me3 in LNCaP cells; 5 μM, 24 h)	level of H3K9me3 in LNCaP cells (H3K9me3 in LNCaP cells; 10 µM, 3 days)	signals of H3K4me2, H3K27me3, H3K27me2, H3K36me3, H3K36me2 and H3K79me2 in LNCaP cells (H3K9me3 in LNCaP cells; 10 µM, 3 days, control vs treated)	cellular level of H3K9me3, dose-dependent (H3K9me3 in LNCaP cells; 1–100 μM, 24 h)	growth of LNCaP cells (LNCaP cells [2])	effect on PNT2 cells (PNT2 cells)	expression of oncogenes IGF1R, FGFR3, CCNE2, AURKA and AURKB (LNCaP cells [4])	expression of tumor suppressors RB1 and CDH1 (LNCaP cells [4])	cytotoxic IC50 in cultured cells (cultured cells)	IC50 (HeLa cells)
blocked the demethylation activity	competitive	–	–	–	O=[N+]([O-])c1cc([N+](=O)[O-])c(/C=C/c2ccc(Cl)c(Cl)c2)cc1/C=C/c1ccc(Cl)c(Cl)c1 [Compound 4, 1,5-bis[(E)-2-(3,4-dichlorophenyl)ethenyl]-2,4-dinitrobenzene]	slightly reduced growth	almost completely blocked	significantly increased	essentially comparable signals	notable increase	significantly affected	hardly any effect	downregulation	upregulation	–	–
blocked the demethylation activity	–	24%	blocked the demethylation activity	21%	O=C(O)c1ccnc(C(=O)O)c1 [Compound 2, pyridine 2,4-dicarboxylic acid]	–	–	–	–	–	–	–	–	–	millimolar range	–
–	–	–	–	–	O=C(O)c1ccc(O)c2ncccc12 [5-carboxy-8HQ]	–	–	–	–	–	–	–	–	–	–	86.5 µM
